Laboratory results reported in patent US9060988B2, “Method for treating pulmonary fibrosis using a pharmaceutical composition containing stanniocalcin 1 (STC1)” (Tohoku University, priority 2011, dated 2015).

Assays:
[1] = system: bleomycin pulmonary fibrosis model; assay: Fibrillization suppressing effect in bleomycin pulmonary fibrosis model mouse (histopathologic staining of lung); assay type: in vivo, C57BL6/J mice; set-up: key to 8OHDG (extent of peroxides accumulation) / HE (fibrillization) / EM (fibrillization): −: not observed; +: mild; ++: moderate; +++: severe; conditions: for 8OHDG staining of lung tissue (amount of peroxides, FIG. 7) / fibrillization (HE and EM stained images, FIGS. 1 to 5): bleomycin model; for 8OHDG staining of lung tissue (amount of peroxides, FIG. 7): extent similar to that of the normal lung group; for fibrillization (HE and EM stained images, FIGS. 1 to 5) / response on progression of pulmonary fibrosis: intratracheal administration; for fibrillization (HE and EM stained images, FIGS. 1 to 5): versus saline control group in which fibrillization was induced; for response on progression of pulmonary fibrosis: bleomycin pulmonary fibrosis model; for 8OHDG (extent of peroxides accumulation) / EM (fibrillization) / HE (fibrillization): lung tissue, one week after intratracheal administration together with bleomycin, STC1 500 ng, NAC 3 mg; for 8OHDG (extent of peroxides accumulation): 8OHDG staining; for EM (fibrillization): Elastica-Masson staining; for HE (fibrillization): HE staining
Excerpt: The action of STC1 was investigated using a pulmonary fibrosis model utilizing the mitotic inhibitory action of an anticancer agent, bleomycin (Bleo), as the disease model mouse.
Human recombinant (r) STC1 was produced by BioVender, Inc. Specifically, human-derived STC1 gene added with a TAG structure was introduced into the 293 cells, and rSTC1 was separated using the TAG sequence.
Specifically, C57BL6/J mice (female, 10 weeks old), four animals in each group, were anesthetized by intraperitoneally administering an anesthetic agent (obtained by diluting 300 μg of ketamine hydrochloride and […] of xylazine in 100 μL of physiological saline). Thereafter, the cervix was cut open to expose a trachea, and the jacket of a 23G SURFLO needle was inserted into the trachea. Then, the following drugs were respectively administered intratracheally through the SURFLO jackets to the mice of each group.
(1) Saline control group: 50 μL of bleomycin-containing physiological saline (bleomycin concentration: 400 ng/mL)
(2) STC1-administered group: 500 ng of STC1+50 μL of bleomycin-containing physiological saline
(3) NAC-administered group (positive control): 3 mg of NAC+50 μL of bleomycin-containing physiological saline
(4) Normal lung group: 50 μL of physiological saline
After one week, the mice were euthanized by anesthetizing the mice as described above and then cutting the carotid artery, and subsequently, the lungs were removed. The extirpated lung tissues were subjected to histopathologic staining (HE (hematoxylin eosin) staining, EM (Elastica-Masson staining), and 8OHDG staining) by standard methods.

[2] = literature report; cited from earlier work

Row | Compound | 8OHDG staining of lung tissue (amount of peroxides, FIG. 7) [1] | fibrillization (HE and EM stained images, FIGS. 1 to 5) [1] | response on progression of pulmonary fibrosis [1] | 8OHDG (extent of peroxides accumulation) [1] | EM (fibrillization) [1] | HE (fibrillization) [1] | suppression of the immune system [2]
1 | CC(=O)N[C@@H](CS)C(=O)O [NAC, N-acetylcysteine, reference compound] | poorly stained | fibrillization was suppressed | amelioration | + | +~++ | +~++ | –
2 | Stanniocalcin 1 [STC1] | poorly stained | fibrillization was suppressed | complete response | + | + | + | does not cause suppression of the immune system
